Source: patent publication US8426345B2, “Method of drug design” (Alchemia Limited, priority 2005, dated 2013)

Biological target: T1, Human SST5 somatostatin receptor (Homo sapiens, UniProt P35346)
T1 construct: expressed in transfected cells; host or cells: HEK-293 EBNA cells (membranes)
Experiment: Filter plate radio-ligand binding assay for SST5 receptor ([125I]SST-14 displacement)
Settings: for % SST5 radio-ligand binding displaced at conc 0.25: conc 0.25 μM; for % SST5 radio-ligand binding displaced at conc 1.0: conc 1.0 μM; for % SST5 radio-ligand binding displaced at conc 50: compound conc 50 μM; for % SST5 radio-ligand binding displaced at conc 50 / % SST5 radio-ligand binding displaced at conc 250 / % SST5 radio-ligand binding displaced at conc 500: 2P library; for % SST5 radio-ligand binding displaced at conc 250: compound conc 250 μM; for % SST5 radio-ligand binding displaced at conc 500: compound conc 500 μM; for % SST5 radio-ligand binding displaced at conc 0.5: conc 0.5 μM; for % SST5 radio-ligand binding displaced at conc 10: conc 10 μM

T1 sequence (P35346 whole entry): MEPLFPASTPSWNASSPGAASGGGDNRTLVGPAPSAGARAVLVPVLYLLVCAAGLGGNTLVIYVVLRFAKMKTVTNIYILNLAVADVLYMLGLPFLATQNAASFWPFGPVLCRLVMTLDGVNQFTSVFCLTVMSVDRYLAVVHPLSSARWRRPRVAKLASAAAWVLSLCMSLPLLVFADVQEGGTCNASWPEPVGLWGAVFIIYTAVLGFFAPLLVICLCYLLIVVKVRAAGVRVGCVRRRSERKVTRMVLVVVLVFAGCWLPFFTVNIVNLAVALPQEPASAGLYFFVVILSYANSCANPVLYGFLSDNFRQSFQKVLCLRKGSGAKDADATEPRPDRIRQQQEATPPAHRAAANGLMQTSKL

## COC[C@H]1O[C@H](OCc2ccc3ccccc3c2)[C@H](NC(=O)CCN)[C@@H](OCc2ccc(Oc3ccccc3)cc2)[C@@H]1O [Compound 118]
3P library
  % SST5 radio-ligand binding displaced at conc 0.25: ++ (% SST5 radio-ligand binding displaced at conc (μM) >60%)
  % SST5 radio-ligand binding displaced at conc 1.0: ++ (% SST5 radio-ligand binding displaced at conc (μM) >60%)

## NCCC(=O)NC1C(OCc2ccc3ccccc3c2)OC(COCc2ccc(Cl)cc2)C(O)C1OCc1ccc2ccccc2c1 (mixture of isomers) [Compound 75]
3P library
  % SST5 radio-ligand binding displaced at conc 0.25: − (% SST5 radio-ligand binding displaced at cone (μM) −<40%)
  % SST5 radio-ligand binding displaced at conc 1.0: ++ (% SST5 radio-ligand binding displaced at conc (μM) >60%)

## COC[C@H]1OC(OCc2ccc(Cl)cc2)[C@H](NC(=O)CN)[C@@H](OCc2ccc(Cl)cc2)[C@@H]1O (single isomer, unassigned) [Compound 171]
3P library
  % SST5 radio-ligand binding displaced at conc 0.25: − (% SST5 radio-ligand binding displaced at cone (μM) −<40%)
  % SST5 radio-ligand binding displaced at conc 1.0: − (% SST5 radio-ligand binding displaced at cone (μM) −<40%)

## NCCCC(=O)N[C@H]1[C@@H](OCc2ccc3ccccc3c2)O[C@H](COCc2ccc3ccccc3c2)[C@@H](O)[C@@H]1OCc1ccc(Cl)cc1 [Compound 135]
3P library
  % SST5 radio-ligand binding displaced at conc 0.25: − (% SST5 radio-ligand binding displaced at cone (μM) −<40%)
  % SST5 radio-ligand binding displaced at conc 1.0: ++ (% SST5 radio-ligand binding displaced at conc (μM) >60%)

## NCCC(=O)NC1C(OCc2ccc3ccccc3c2)OC(COCc2ccccc2)C(O)C1OCc1ccc(Cl)cc1 (mixture of isomers) [Compound 71]
3P library
  % SST5 radio-ligand binding displaced at conc 0.25: − (% SST5 radio-ligand binding displaced at cone (μM) −<40%)
  % SST5 radio-ligand binding displaced at conc 1.0: ++ (% SST5 radio-ligand binding displaced at conc (μM) >60%)

## COC[C@H]1O[C@@H](SC)[C@H](NC(=O)CCCN)[C@H](OCc2ccc3ccccc3c2)[C@@H]1O [Compound 58]
  % SST5 radio-ligand binding displaced at conc 50: − (% SST5 radio-ligand binding displaced at cone (μM) −<40%)
  % SST5 radio-ligand binding displaced at conc 250: − (% SST5 radio-ligand binding displaced at cone (μM) −<40%)
  % SST5 radio-ligand binding displaced at conc 500: − (% SST5 radio-ligand binding displaced at cone (μM) −<40%)

## COC[C@H]1O[C@H](OCc2ccc3ccccc3c2)[C@H](NC(=O)CCCN)[C@@H](OCc2cccc3cccnc23)[C@@H]1O [Compound 147]
3P library
  % SST5 radio-ligand binding displaced at conc 0.25: + (% SST5 radio-ligand binding displaced at cone (μM) 60>+>40%)
  % SST5 radio-ligand binding displaced at conc 1.0: ++ (% SST5 radio-ligand binding displaced at conc (μM) >60%)

## NCCC(=O)NC1C(OCc2ccc3ccccc3c2)OC(COCc2ccc3ccccc3c2)C(O)C1OCc1ccc(Cl)cc1 (mixture of isomers) [Compound 70]
3P library
  % SST5 radio-ligand binding displaced at conc 0.25: − (% SST5 radio-ligand binding displaced at cone (μM) −<40%)
  % SST5 radio-ligand binding displaced at conc 1.0: + (% SST5 radio-ligand binding displaced at cone (μM) 60>+>40%)

## COC[C@H]1O[C@H](OCc2ccc3ccccc3c2)[C@H](NC(=O)CCCN2CCCC2)[C@@H](OCc2ccc3ccccc3c2)[C@@H]1O [Compound 143]
3P library
  % SST5 radio-ligand binding displaced at conc 0.25: − (% SST5 radio-ligand binding displaced at cone (μM) −<40%)
  % SST5 radio-ligand binding displaced at conc 1.0: − (% SST5 radio-ligand binding displaced at cone (μM) −<40%)

## COC1C(O)C(COCc2ccc(-c3ccccc3)cc2)OC(OCc2ccc3ccccc3c2)C1NC(=O)CCCN (mixture of isomers) [Compound 121]
3P library
  % SST5 radio-ligand binding displaced at conc 0.5: + (% SST5 radio-ligand binding displaced at cone (μM) 60>+>40%)
  % SST5 radio-ligand binding displaced at conc 10: + (% SST5 radio-ligand binding displaced at cone (μM) 60>+>40%)

## COCC1OC(OCc2ccc3ccccc3c2)C(NC(=O)CCCN)C(OCc2cccc(O)c2)C1O (mixture of isomers) [Compound 130]
3P library
  % SST5 radio-ligand binding displaced at conc 10: ++ (% SST5 radio-ligand binding displaced at conc (μM) >60%)

## CO[C@@H]1[C@H](O)[C@@H](COCc2ccc(Cl)cc2)O[C@@H](SC)[C@@H]1NC(=O)CCCN [Compound 41]
  % SST5 radio-ligand binding displaced at conc 50: − (% SST5 radio-ligand binding displaced at cone (μM) −<40%)
  % SST5 radio-ligand binding displaced at conc 250: − (% SST5 radio-ligand binding displaced at cone (μM) −<40%)
  % SST5 radio-ligand binding displaced at conc 500: − (% SST5 radio-ligand binding displaced at cone (μM) −<40%)

## COC[C@H]1O[C@@H](OCc2ccc3ccccc3c2)[C@H](NC(=O)CN)[C@@H](OC)[C@@H]1O [Compound 14]
  % SST5 radio-ligand binding displaced at conc 50: − (% SST5 radio-ligand binding displaced at cone (μM) −<40%)
  % SST5 radio-ligand binding displaced at conc 250: − (% SST5 radio-ligand binding displaced at cone (μM) −<40%)
  % SST5 radio-ligand binding displaced at conc 500: − (% SST5 radio-ligand binding displaced at cone (μM) −<40%)

## COC1C(O)C(COCc2ccc3ccccc3c2)OC(OCc2ccc(Cl)cc2)C1NC(=O)CN (mixture of isomers) [Compound 179]
3P library
  % SST5 radio-ligand binding displaced at conc 0.25: − (% SST5 radio-ligand binding displaced at cone (μM) −<40%)
  % SST5 radio-ligand binding displaced at conc 1.0: − (% SST5 radio-ligand binding displaced at cone (μM) −<40%)

## NCCC(=O)NC1C(OCc2ccc3ccccc3c2)OC(COCc2ccc(Cl)cc2)C(O)C1OCc1ccccc1 (mixture of isomers) [Compound 78]
3P library
  % SST5 radio-ligand binding displaced at conc 0.25: + (% SST5 radio-ligand binding displaced at cone (μM) 60>+>40%)
  % SST5 radio-ligand binding displaced at conc 1.0: ++ (% SST5 radio-ligand binding displaced at conc (μM) >60%)

## CO[C@H]1[C@H](O)[C@@H](COCc2ccc3ccccc3c2)O[C@@H](SC)[C@@H]1NC(=O)CCN [Compound 16]
  % SST5 radio-ligand binding displaced at conc 50: − (% SST5 radio-ligand binding displaced at cone (μM) −<40%)
  % SST5 radio-ligand binding displaced at conc 250: − (% SST5 radio-ligand binding displaced at cone (μM) −<40%)
  % SST5 radio-ligand binding displaced at conc 500: + (% SST5 radio-ligand binding displaced at cone (μM) 60>+>40%)

## NCCC(=O)NC1C(OCc2ccc3ccccc3c2)OC(COCc2ccccc2)C(O)C1OCc1ccc2ccccc2c1 (centres unmarked) [Compound 82]
3P library
  % SST5 radio-ligand binding displaced at conc 0.25: + (% SST5 radio-ligand binding displaced at cone (μM) 60>+>40%)
  % SST5 radio-ligand binding displaced at conc 1.0: ++ (% SST5 radio-ligand binding displaced at conc (μM) >60%)

## COCC1OC(OCc2ccc(Cl)cc2)C(NC(=O)CN)C(OCc2ccc(Cl)cc2)C1O (mixture of isomers) [Compound 161]
Conc 0.001 μM, 3P library
  % SST5 radio-ligand binding displaced at conc 0.001: − (% SST5 radio-ligand binding displaced at cone (μM) −<40%)
Conc 0.10 μM, 3P library
  % SST5 radio-ligand binding displaced at conc 0.10: − (% SST5 radio-ligand binding displaced at cone (μM) −<40%)
3P library
  % SST5 radio-ligand binding displaced at conc 0.5: − (% SST5 radio-ligand binding displaced at cone (μM) −<40%)
  % SST5 radio-ligand binding displaced at conc 1.0: − (% SST5 radio-ligand binding displaced at cone (μM) −<40%)
  % SST5 radio-ligand binding displaced at conc 10: ++ (% SST5 radio-ligand binding displaced at conc (μM) >60%)

## COC1C(O)C(COCc2ccccc2)OC(OCc2ccc3ccccc3c2)C1NC(=O)CCCN (mixture of isomers) [Compound 123]
3P library
  % SST5 radio-ligand binding displaced at conc 0.5: − (% SST5 radio-ligand binding displaced at cone (μM) −<40%)
  % SST5 radio-ligand binding displaced at conc 10: − (% SST5 radio-ligand binding displaced at cone (μM) −<40%)

## COC[C@H]1O[C@@H](SC)[C@H](NC(=O)CCCN)[C@@H](OCc2ccc3ccccc3c2)[C@@H]1O [Compound 25]
  % SST5 radio-ligand binding displaced at conc 50: − (% SST5 radio-ligand binding displaced at cone (μM) −<40%)
  % SST5 radio-ligand binding displaced at conc 250: − (% SST5 radio-ligand binding displaced at cone (μM) −<40%)
  % SST5 radio-ligand binding displaced at conc 500: + (% SST5 radio-ligand binding displaced at cone (μM) 60>+>40%)
